Results: the NIST ThermoML archive (doi:10.1007/s10765-008-0482-1)
Where “and” joins values, the source holds several entries; their conditions need not be identical. Equal entries are not always repeated.

Assay: xn = mol fraction of the nth substance listed
Details: Fluid (supercritical or subcritical phases), Parallel plate method

CC [ethane] + O=C=O
Details	thermal conductivity
296.64 K, Amount density=7450 mol/m3, x2 = 0.25	0.186 W/m/K
296.65 K, Amount density=7450 mol/m3, x2 = 0.25	0.183 W/m/K
296.66 K, Amount density=6830 mol/m3, x2 = 0.25	0.138 W/m/K
296.69 K, Amount density=7450 mol/m3, x2 = 0.25	0.186 W/m/K
296.7 K, Amount density=6870 mol/m3, x2 = 0.25	0.177 W/m/K and 0.188 W/m/K
296.7 K, Amount density=7450 mol/m3, x2 = 0.25	0.154 W/m/K
296.71 K, Amount density=6870 mol/m3, x2 = 0.25	0.214 W/m/K
296.71 K, Amount density=7450 mol/m3, x2 = 0.25	0.175 W/m/K
296.72 K, Amount density=7450 mol/m3, x2 = 0.25	0.164 W/m/K and 0.166 W/m/K
296.73 K, Amount density=6870 mol/m3, x2 = 0.25	0.195 W/m/K
296.74 K, Amount density=6830 mol/m3, x2 = 0.25	0.199 W/m/K
296.74 K, Amount density=7450 mol/m3, x2 = 0.25	0.145 W/m/K
296.75 K, Amount density=6870 mol/m3, x2 = 0.25	0.204 W/m/K
296.75 K, Amount density=7450 mol/m3, x2 = 0.25	0.157 W/m/K
296.76 K, Amount density=6870 mol/m3, x2 = 0.25	0.189 W/m/K
296.77 K, Amount density=6870 mol/m3, x2 = 0.25	0.195 W/m/K
296.79 K, Amount density=6830 mol/m3, x2 = 0.25	0.218 W/m/K
296.8 K, Amount density=6870 mol/m3, x2 = 0.25	0.168 W/m/K
296.8 K, Amount density=8450 mol/m3, x2 = 0.25	0.0921 W/m/K
296.82 K, Amount density=6710 mol/m3, x2 = 0.26	0.118 W/m/K
296.83 K, Amount density=6870 mol/m3, x2 = 0.25	0.157 W/m/K
296.84 K, Amount density=6710 mol/m3, x2 = 0.26	0.111 W/m/K
296.84 K, Amount density=6830 mol/m3, x2 = 0.25	0.142 W/m/K
296.85 K, Amount density=5680 mol/m3, x2 = 0.25	0.0729 W/m/K
296.86 K, Amount density=2940 mol/m3, x2 = 0.25	0.0306 W/m/K
296.87 K, Amount density=877 mol/m3, x2 = 0.26	0.0217 W/m/K
296.87 K, Amount density=6710 mol/m3, x2 = 0.26	0.11 W/m/K
296.88 K, Amount density=446 mol/m3, x2 = 0.25	0.021 W/m/K
296.88 K, Amount density=7450 mol/m3, x2 = 0.25	0.145 W/m/K
296.88 K, Amount density=7490 mol/m3, x2 = 0.25	0.139 W/m/K
297.16 K, Amount density=3090 mol/m3, x2 = 0.26	0.0313 W/m/K
297.44 K, Amount density=8450 mol/m3, x2 = 0.25	0.0821 W/m/K
297.46 K, Amount density=5680 mol/m3, x2 = 0.25	0.0677 W/m/K
297.46 K, Amount density=6830 mol/m3, x2 = 0.25	0.11 W/m/K and 0.102 W/m/K
297.47 K, Amount density=2940 mol/m3, x2 = 0.25	0.0305 W/m/K
297.47 K, Amount density=6830 mol/m3, x2 = 0.25	0.102 W/m/K
297.48 K, Amount density=7490 mol/m3, x2 = 0.25	0.111 W/m/K
297.5 K, Amount density=10780 mol/m3, x2 = 0.25	0.0671 W/m/K
297.52 K, Amount density=446 mol/m3, x2 = 0.25	0.021 W/m/K
298.49 K, Amount density=9120 mol/m3, x2 = 0.74	0.06 W/m/K
298.69 K, Amount density=6870 mol/m3, x2 = 0.25	0.169 W/m/K
298.95 K, Amount density=7450 mol/m3, x2 = 0.25	0.081 W/m/K
298.99 K, Amount density=5680 mol/m3, x2 = 0.25	0.0623 W/m/K
298.99 K, Amount density=6830 mol/m3, x2 = 0.25	0.0779 W/m/K
298.99 K, Amount density=7490 mol/m3, x2 = 0.25	0.0811 W/m/K
298.99 K, Amount density=10780 mol/m3, x2 = 0.25	0.0684 W/m/K
299 K, Amount density=2940 mol/m3, x2 = 0.25	0.0305 W/m/K
299.01 K, Amount density=446 mol/m3, x2 = 0.25	0.0211 W/m/K
299.01 K, Amount density=6630 mol/m3, x2 = 0.74	0.0467 W/m/K
299.02 K, Amount density=446 mol/m3, x2 = 0.25	0.0212 W/m/K
301.91 K, Amount density=7730 mol/m3, x2 = 0.5	0.0493 W/m/K
301.93 K, Amount density=6710 mol/m3, x2 = 0.26	0.0624 W/m/K
301.95 K, Amount density=7530 mol/m3, x2 = 0.5	0.0505 W/m/K
301.96 K, Amount density=6960 mol/m3, x2 = 0.5	0.0531 W/m/K
301.98 K, Amount density=435 mol/m3, x2 = 0.5	0.0203 W/m/K
302 K, Amount density=6830 mol/m3, x2 = 0.25	0.0658 W/m/K
302.01 K, Amount density=877 mol/m3, x2 = 0.26	0.0222 W/m/K
302.01 K, Amount density=2940 mol/m3, x2 = 0.5	0.0281 W/m/K
302.02 K, Amount density=446 mol/m3, x2 = 0.25	0.0214 W/m/K
302.02 K, Amount density=5680 mol/m3, x2 = 0.25	0.056 W/m/K
302.04 K, Amount density=2940 mol/m3, x2 = 0.25	0.0307 W/m/K
302.04 K, Amount density=6830 mol/m3, x2 = 0.25	0.0658 W/m/K
302.05 K, Amount density=8450 mol/m3, x2 = 0.25	0.0676 W/m/K
302.06 K, Amount density=7490 mol/m3, x2 = 0.25	0.0699 W/m/K
302.11 K, Amount density=3090 mol/m3, x2 = 0.26	0.0311 W/m/K
302.25 K, Amount density=6630 mol/m3, x2 = 0.74	0.0436 W/m/K
302.43 K, Amount density=5650 mol/m3, x2 = 0.5	0.0436 W/m/K
307.99 K, Amount density=2940 mol/m3, x2 = 0.5	0.0279 W/m/K
308 K, Amount density=7730 mol/m3, x2 = 0.5	0.0462 W/m/K
308.01 K, Amount density=6830 mol/m3, x2 = 0.25	0.0567 W/m/K
308.02 K, Amount density=6960 mol/m3, x2 = 0.5	0.0468 W/m/K
308.02 K, Amount density=7490 mol/m3, x2 = 0.25	0.0614 W/m/K
308.03 K, Amount density=7530 mol/m3, x2 = 0.5	0.0469 W/m/K
308.06 K, Amount density=5650 mol/m3, x2 = 0.5	0.041 W/m/K
308.06 K, Amount density=7450 mol/m3, x2 = 0.25	0.0646 W/m/K
308.06 K, Amount density=9120 mol/m3, x2 = 0.74	0.0485 W/m/K
308.07 K, Amount density=435 mol/m3, x2 = 0.5	0.0207 W/m/K
308.07 K, Amount density=446 mol/m3, x2 = 0.25	0.0219 W/m/K
308.09 K, Amount density=435 mol/m3, x2 = 0.5	0.0207 W/m/K
308.1 K, Amount density=877 mol/m3, x2 = 0.26	0.0228 W/m/K
308.12 K, Amount density=10780 mol/m3, x2 = 0.25	0.0659 W/m/K
308.15 K, Amount density=2940 mol/m3, x2 = 0.25	0.031 W/m/K
308.16 K, Amount density=3090 mol/m3, x2 = 0.26	0.0314 W/m/K
308.18 K, Amount density=6630 mol/m3, x2 = 0.74	0.0413 W/m/K
308.18 K, Amount density=6710 mol/m3, x2 = 0.26	0.054 W/m/K
308.23 K, Amount density=8450 mol/m3, x2 = 0.25	0.0617 W/m/K
308.7 K, Amount density=5680 mol/m3, x2 = 0.25	0.0516 W/m/K
318.04 K, Amount density=9120 mol/m3, x2 = 0.74	0.0354 W/m/K
318.11 K, Amount density=435 mol/m3, x2 = 0.5	0.0218 W/m/K
318.11 K, Amount density=6630 mol/m3, x2 = 0.74	0.0382 W/m/K
318.12 K, Amount density=7530 mol/m3, x2 = 0.5	0.0445 W/m/K
318.13 K, Amount density=5650 mol/m3, x2 = 0.5	0.0411 W/m/K
318.13 K, Amount density=6960 mol/m3, x2 = 0.5	0.0425 W/m/K
318.13 K, Amount density=7490 mol/m3, x2 = 0.25	0.0559 W/m/K
318.13 K, Amount density=7730 mol/m3, x2 = 0.5	0.0403 W/m/K
318.14 K, Amount density=2940 mol/m3, x2 = 0.5	0.0293 W/m/K
318.14 K, Amount density=6830 mol/m3, x2 = 0.25	0.0532 W/m/K
318.14 K, Amount density=10780 mol/m3, x2 = 0.25	0.065 W/m/K
318.15 K, Amount density=446 mol/m3, x2 = 0.25	0.0232 W/m/K
318.15 K, Amount density=5650 mol/m3, x2 = 0.5	0.0398 W/m/K
318.16 K, Amount density=2940 mol/m3, x2 = 0.25	0.0316 W/m/K
318.16 K, Amount density=8450 mol/m3, x2 = 0.25	0.049 W/m/K
318.17 K, Amount density=3090 mol/m3, x2 = 0.26	0.0318 W/m/K
318.19 K, Amount density=877 mol/m3, x2 = 0.26	0.0236 W/m/K
318.21 K, Amount density=6710 mol/m3, x2 = 0.26	0.0503 W/m/K
318.27 K, Amount density=5680 mol/m3, x2 = 0.25	0.0481 W/m/K
